“Also recorded” adds a separate entry of the source. Read-outs that look alike come from different tables or passages of the source.
What was measured:
[1] = target: T1, dopamine transporter (DAT) (Homo sapiens, UniProt Q01959); assay: Inhibition of human transporter in stable epithelial cell lines (DAT); format: cell-based; settings: average of two replicates (n=2)
T1 construct: expressed in transfected cells
Description: Compounds were tested for their ability to inhibit the reuptake of the monoamine neurotransmitters dopamine (DA), noradrenaline (NA), and serotonin (5-HT) in synaptosomes as described in WO 97/16451 (NeuroSearch A/S). In addition, the compounds were tested in human epithelial cells expressing human transporters for 5-HT (SERT), dopamine (DAT), and norepinephrine (NET).
The results are the average of two-replicates per experiment (n=2).

[2] = Phase I ascending single oral dose study: pharmacokinetics; format: in vivo, human; settings: for Tmax / half-life: human, in vivo, po; for Tmax: single oral dose, postdose
Description: Study design. The study was a Phase I, randomised, double-blind, placebo-controlled, ascending single oral dose, safety, tolerability, pharmacokinetic (PK) and pharmacodynamics (PD) study of IP2015 in healthy male subjects.
Each subject received one oral dose of IP2015 or matched placebo. […] The dose level was to be escalated to a maximum of 0.05 mg in Cohort 2 and a maximum of 0.2 mg in Cohort 3. The doses in the remaining five cohorts were to be determined based on the dose escalation criteria.
Subjects were required to attend the clinical research unit (CRU) for a screening visit within 28 days prior to dosing. […] All subjects remained in the CRU until Day 3 (48 hours postdose) for the collection of safety assessments, PK blood and urine samples, and CNS assessments.
Study Drug, Dose and Mode of Administration. IP2015 and matched placebo were provided as a powder in bottles for oral solution. […] Reconstitution was performed by a pharmacist at the clinical site prior to dosing.
The dose was taken with 240 mL of water at room temperature. Subjects/participants were fasted overnight prior to dosing until 4 hours postdose. Water was allowed ad libitum except for 1 hour before and 1 hour after dosing.
The doses used in each cohort were as follows: • Cohort 1 - 0.01 mg • Cohort 2 - 0.05 mg • Cohort 3 - 0.2 mg • Cohort 4 - 0.6 mg • Cohort 5 - 1.8 mg • Cohort 6 - 5.4 mg • Cohort 7 - 16.2 mg • Cohort 8 - 10 mg
The study also evaluated plasma PK concentrations and parameters including but not limited to: area under the plasma concentration vs time curve (AUC), from time zero to the last quantifiable concentration (AUC0-t), AUC from zero to infinity (AUC0-∞), observed maximum plasma concentration (Cmax), time to reach maximum plasma concentration (tmax) and terminal elimination half-life (T1/2) in healthy male subjects.
Statistical methods. Safety parameters were listed and summarised using descriptive statistics. Pharmacokinetic parameter estimates were calculated using noncompartmental methods. Pharmacokinetic data were listed for each subject/patient and summarised by descriptive statistics.
Dose proportionality was analysed for Part A with a linear regression model using the logarithm of a PK parameter as responsible variable and the logarithm of the dose as the independent variable. The linear regression model can be expressed as: Log(yi) = α + β*log dosei + εi [formula] where α is the intercept, dosei is the actual dose of IP2015 for the ith subject and εi is the (within subject) random error in observing yi.
The above model was applied to the following PK parameters; AUC0-t, AUC0-∞ and Cmax. Based on the linear regression model, the dose proportionality coefficient (slope) and its two-sided 90% confidence interval (CI) were estimated. Dose proportionality was declared if the 90% CI for the slope was completely contained in the following range16: 1+log(0.5)/log(r), 1+log(2)/log(r), where r is the high dose/low dose.

[3] = tested on: formalin-induced flinching behaviour; assay: Automated rat formalin test of persistent nociceptive pain; format: in vivo, Sprague-Dawley rats
Description: All treatments were administered s.c. in a dosing volume of 2 ml/kg 60 min prior to formalin injection.
Adult male Sprague-Dawley rats (Harlan Scandinavia, Alleroed, Denmark) were used. They were housed in Macrolon III cages (20 x 14 x 18 cm or 20 x 40 x18 cm; in groups of 2-5 per cage according to weight) containing wood-chip bedding material (3 x 1 x 4 mm). The environment was temperature (20 ± 2°C) and humidity (55 ± 15%) controlled and consisted of a light-dark cycle of 13:11 h (lights on at 06.00 h and off at 19.00 h). Food (Altromin®) and water were available ad libitum. The rats were allowed to habituate to the housing facilities for at least one week prior to being randomly assigned to behavioural experiments. At the end of each experiment rats were euthanized by cervical dislocation. All experiments were performed according to the Ethical Guidelines of the International Association for the Study of Pain (Zimmermann, 1983) and the Danish Committee for Experiments on Animals.
As highlighted in the Procedures section below 4 rats were included in each automated testing session. 4 individual treatments were assessed during the session and treatments were rotated to minimise bias associated with a particular testing chamber. […]
Assessment of formalin-induced flinching behaviour in normal, uninjured rats (body weight 180-220 g) was made with the use of an Automated Nociception Analyser (University of California, San Diego, CA; Yaksh et al., 2001). […] They were then returned to their separate observation chambers, each of which were in turn situated upon an enclosed detection device consisting of two electromagnetic coils designed to produce an electromagnetic field in which movement of the metal band could be detected. […] In an initial formalin concentration response study, five phases of nociceptive behaviour were identified and scored according to Yaksh et al., (2001); first phase (P1=0-5 min), interphase (Int=6-15 min), early second phase (P2A=16-40 min), late second phase (P2B=41-60 min) and entire second phase (P2A+P2B=16-60 min). […]

T1 sequence (Q01959 whole entry): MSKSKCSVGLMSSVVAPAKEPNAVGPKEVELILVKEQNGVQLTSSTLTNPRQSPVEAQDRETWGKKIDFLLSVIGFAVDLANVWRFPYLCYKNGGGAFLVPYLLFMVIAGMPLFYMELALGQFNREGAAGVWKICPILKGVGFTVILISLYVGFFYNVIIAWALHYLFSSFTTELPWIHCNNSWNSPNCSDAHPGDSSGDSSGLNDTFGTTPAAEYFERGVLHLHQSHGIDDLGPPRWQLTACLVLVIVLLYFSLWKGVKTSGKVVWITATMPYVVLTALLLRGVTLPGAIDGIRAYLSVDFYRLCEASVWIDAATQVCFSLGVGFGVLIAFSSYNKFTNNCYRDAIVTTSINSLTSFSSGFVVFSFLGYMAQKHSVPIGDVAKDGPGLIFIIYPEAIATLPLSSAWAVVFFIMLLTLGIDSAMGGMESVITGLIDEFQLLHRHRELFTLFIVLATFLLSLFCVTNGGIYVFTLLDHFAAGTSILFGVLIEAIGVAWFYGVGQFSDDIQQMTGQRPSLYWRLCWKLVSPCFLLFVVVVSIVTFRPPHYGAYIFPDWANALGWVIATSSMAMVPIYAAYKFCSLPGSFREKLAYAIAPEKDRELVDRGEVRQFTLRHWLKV

With `COc1cc2ccc(O[C@@H]3C[C@H]4CC[C@@H](C3)N4)cc2oc1=O` [IP2015, exo-7-[(8-azabicyclo[3.2.1]octan-3-yl)oxy]-3-methoxy-chromen-2-one] the IC50 [1] was 1.44 nM, the “Plasma concentrations of IP2015” value ([2]; 0.01 mg and 0.05 mg single oral dose, all subjects) was “below the LLOQ” and the “subjects with plasma concentrations below the LLOQ” value ([2]; 0.2 mg single oral dose) was 3/7. It also gave a Tmax ([2]; read-out: tmax (range across all dose levels)) of 1 to 6 h, a Tmax ([2]; range of medians across doses, read-out: Median tmax) of 2.25 to 5 h and a half-life ([2]; 0.6 mg, calculated for 1/6 subjects, read-out: mean t½ (converted)) of 869 min. For the same molecule, the half-life ([2]; 1.8 mg, calculated for 3/6 subjects, read-out: mean t½ (converted)) was 965 min, the half-life ([2]; 5.4 mg to 16.2 mg doses, range of means, read-out: mean T½) was 1390 to 1580 min and the “flinches in P1, interphase and P2” value ([3]; 1, 3, 10, 30 mg/kg s.c., 60 min prior to 5% formalin) was “reduced the prevalence of flinches; also recorded: robust dose-dependent inhibition”. For the same molecule, the “observation in rats of the formalin test” value ([3]; 10 or 30 mg/kg s.c., all rats) was “spontaneous erections and/or ejaculations” and the minimal effective dose ([3]; s.c., especially during interphase and 2nd phase, stated as likely) was less than 3 mg/kg.
